melting point [°C] | Compound
136 to 138 | O=C(O)CSCc1ccccn1
59 to 61 | CC(Cl)C1CC(c2ccccc2)=NO1 (stereo not given)
169 to 171 | Nc1ccc(Sc2ccncc2)cc1
250 to 252 | O=S(=O)(Nc1nc2ccccc2nc1Cl)c1cc(F)ccc1F
142 to 144 | O=C(O)CCNS(=O)(=O)c1ccccc1C(F)(F)F
129 to 131 | O=S(=O)(Cc1ccccc1)N1CCNCC1
149 to 151 | CS(=O)(=O)CCS(N)(=O)=O
141 to 143 | O=S1(=O)NN=Cc2ccccc21
64 to 66 | COCc1cccc(C(=O)O)c1
74 to 76 | c1nnc(C2CC2)n1C1CC1
50 to 52 | COC(=O)c1c(Cl)ncnc1Cl
125 to 127 | CC(C)c1n[nH]c(-c2ccccc2N)n1
89 to 91 | O=C(c1ccc(F)cc1)c1cnc2ccccc2c1
142 to 144 | COC(=O)C(=O)CC(=O)c1ccc(-c2ccccc2)cc1
179 to 181 | O=C(O)Cn1cnc(-c2ccccc2)n1
170 to 172 | CCOC(=O)c1ccc(S(=O)(=O)N2CCC(C(=O)O)CC2)o1
145 to 147 | COc1ccccc1C(CN)NC(=O)OC(C)(C)C (stereo not given)
219 to 221 | O=C1NCCCc2cc(O)ccc21
94 to 96 | Cc1cc(C(=O)CCl)c(C)n1Cc1ccc(F)cc1
180 to 182 | O=C(O)c1ccc(CS(=O)(=O)c2ccccc2)o1
189 to 191 | NC(=S)c1ccc(N)cc1
163 to 167 | Nn1c(S)nnc1COc1ccccc1
49 to 51 | O=C(O)CCc1ccccc1OC(F)(F)F
144 to 146 | Cc1cc(CO)c2ccccc2n1

melting point [°C] | Compound
49 to 51 | Clc1nccc(OCc2ccccc2)n1
120 to 122 | Nc1cccc(OCC(=O)Nc2ccccc2)c1
164 to 166 | CCOC(=O)/C(C#N)=C\Nc1cc(F)ccc1F
164 to 166 | C#CCN1C(=O)C(=O)c2cc(Br)ccc21
127 to 129 | Nc1nc(C2CC2)c(Cc2ccccc2Cl)s1
279 to 281 | CCC1(c2ccc(O)cc2)NC(=O)NC1=O (stereo not given)
101 to 103 | O=C(O)Cc1cc(Cl)ccc1Br
218 to 221 | O=S(=O)(c1ccc(S)nc1)N1CCCCC1
124 to 126 | CCc1ccc(C(=O)c2ccc(N)cc2)o1
67 to 69 | CC1(C)CC(=O)c2cncnc2C1
62 to 64 | CCOC(=O)C(NC(=O)c1ccccc1)C(=O)OCC
180 to 182 | COCCCn1c(S)nc2ccccc2c1=O
172 to 174 | Cc1nc(S)c2c(=O)n(C)c(=O)n(CC(C)C)c2n1
87 to 89 | CCOC(=O)c1sc2nc(C)nn2c1C
174 to 176 | COC1=CC(=C(N)N=O)C=CN1
139 to 141 | O=C1C=CC(=O)N1c1cc(Cl)cc(Cl)c1
95 to 97 | CN1CCN(C(=O)C2CCN(C(=O)OC(C)(C)C)CC2)CC1
212 to 214 | CC1(C)CC(=O)c2sc(N)nc2C1
84 to 86 | CC(=O)c1ccc(N2CCOCC2)c(F)c1
109 to 111 | CC(C)(Sc1ccc(Br)cc1)C(=O)O
47 to 58 | O=C(CCl)c1ccc2c(c1)CCC2
281 to 283 | Cc1ccc(S(=O)(=O)Cc2ccc(C(=O)O)cc2)cc1
197 to 199 | O=C(O)CCc1nnc(-c2cccnc2)o1
177 to 179 | CC(C)(C)OC(=O)NC(C(N)=NO)c1ccccc1 (stereo not given)

melting point [°C] | Compound
54 to 56 | O=C1CCn2cccc21
101 to 103 | O=C(CO)NCc1ccccc1
141 to 143 | O=C1CCC(C(F)(F)F)CN1 (stereo not given)
73 to 75 | CC[C@@H](CO)NCc1ccccc1
204 to 206 | O=C(O)C=Cc1ccc(-n2cc(Br)cn2)c(F)c1
193 to 195 | COC(=O)c1nc(-c2ccccc2)oc1N
141 to 143 | CCN(CC)C(C(N)=O)c1ccccc1 (stereo not given)
91 to 93 | N#CC(NC(=O)c1ccccc1)C1CC1 (stereo not given)
196 to 198 | COc1cc(Br)c(S(=O)(=O)Cl)cc1C(=O)O
144 to 146 | Nc1nc(-c2cc(Cl)sc2Cl)cs1
179 to 181 | CC(C)(C)C(=O)Nc1ccc(F)c(C(=O)O)c1
91 to 93 | O=C(O)CCCNC(=O)c1ccco1
84 to 86 | CC(C)c1nc(I)c2ccccn12
134 to 136 | Cc1nn(C)c2ncc(S(=O)(=O)Cl)cc12
115 to 117 | Nc1ccc(S(=O)(=O)N=C2CCCCCN2)cc1
73 to 75 | COc1ccc(C)cc1NC(=O)CCl
194 to 196 | NS(=O)(=O)c1cc(C(=O)O)cs1
115 to 117 | NC1CCCS(=O)(=O)c2ccccc21 (stereo not given)
253 to 255 | Cc1nn2cnnc2c(C)c1CCC(=O)O
117 to 119 | Cc1ccc(S(N)(=O)=O)cc1C
127 to 129 | Nc1cccc(S(=O)(=O)Nc2ccccc2)c1
56 to 58 | CCOC(=O)C(C)(C#N)Cc1ccncc1 (stereo not given)
111 to 113 | Nc1ccccc1OCC(=O)N1CCOCC1
45 to 47 | O=S(=O)(Cl)c1ccc(Cl)cc1C(F)(F)F

melting point [°C] | Compound
158 to 160 | NC(=O)c1c(N)sc2c1CCC2
300 to 302 | Cc1ccc(-c2cnnc(N)n2)s1
235 to 237 | CC(C)Cc1cc(C(=O)O)cc(O)n1
190 to 192 | N#Cc1cc(-c2ccccc2)sc1N
64 to 66 | OC(c1cccnc1)C(F)(F)F (stereo not given)
71 to 73 | NCC(O)COc1ccc(F)cc1 (stereo not given)
297 to 299 | O=C(O)c1ccc(CS(=O)(=O)c2ccccc2)cc1
274 to 276 | Nc1nc(=O)c2ccccc2s1
49 to 51 | Cc1nn(CCCl)c(C)c1C=O
199 to 201 | COc1nc(C)cc(=O)[nH]1
38 to 42 | O=Cc1sc(Cl)nc1Cl
178 to 180 | FC(F)(F)CNc1nnc(S)s1
171 to 173 | CCCc1nc2c(c(=O)[nH]1)CCN(Cc1ccccc1)C2
144 to 146 | O=C(O)CCNC(=O)N1CCc2ccccc2C1
169 to 171 | O=C(O)CNC(=O)NCc1ccc(F)cc1
61 to 63 | Oc1ccccc1CNC1CCCCC1
259 to 261 | Nc1nc2ccccc2n1N
59 to 61 | O=C(O)CCn1ccc2cc(Cl)ccc21
184 to 186 | CN(CC(=O)N1CCCC(C(=O)O)C1)c1ccc(Cl)cn1 (stereo not given)
137 to 139 | Nc1cccc(-c2cc[nH]n2)c1
54 to 56 | Clc1ncncc1I
208 to 210 | CCn1c(S)nnc1CCC(N)=O
99 to 101 | O=C(CO)N1CCc2ccccc2C1
118 to 120 | O=C(CSc1ccccc1C(=O)O)NCC1CCCCC1

melting point [°C] | Compound
96 to 98 | Cc1ncsc1-c1cnco1
200 to 202 | NS(=O)(=O)c1cn[nH]c1
62 to 64 | O=C1CCOc2c(Cl)cccc21
130 to 132 | Cc1nn(CC(F)(F)F)c(C)c1C(C)C(=O)O (stereo not given)
381 to 383 | N#Cc1c[nH]c2ccc(Cl)cc2c1=O
93 to 95 | Nc1ccc(Sc2ccc(C(F)(F)F)cc2)cc1
173 to 175 | CC(=O)c1nc2ccc(Cl)cc2[nH]1
192 to 194 | COc1ccc(OC)c(-c2cc(C(=O)O)no2)c1
196 to 198 | Cc1cc(N)nc(C(C)C)n1
90 to 92 | CC(C)Cc1cc(N)n(C)n1
102 to 104 | O=Cc1cccc(NC(=O)C(F)(F)F)c1
305 to 307 | O=C(O)c1ccc(NC(=O)c2cc(Cl)cc(Cl)c2)cc1
90 to 92 | O=C(C1=CNCCC1)c1ccccc1
188 to 190 | O=C(O)Cc1csc(NC(=O)NC2CC2)n1
184 to 186 | Nc1ccc(N2CCCC2=O)c(Cl)c1
286 to 288 | Cc1nc(-c2nnc[nH]2)sc1C(=O)O
178 to 180 | CC1CCc2c(C(=O)O)csc2C1 (stereo not given)
199 to 201 | Cc1n[nH]cc1C(=O)NN
156 to 158 | NC(CC(=O)Nc1ccccc1)=NO
131 to 133 | CC(C)(C)OC(=O)NCc1ccc(C(=O)O)o1
154 to 156 | c1cc(-c2ccn[nH]2)ccn1
232 to 234 | COc1ccc(-n2c(C)cc(C(=O)O)c2C)cc1
150 to 152 | Cn1c(NN)nc2ccccc2c1=O
180 to 182 | O=C(O)Cn1nnc(-c2ccccc2)n1

melting point [°C] | Compound
220 to 222 | CNc1ncccc1C(=O)O
81 to 83 | CCOc1cc(Cl)ccc1C#N
116 to 118 | NC(=O)COc1cccc(CO)c1
176 to 178 | O=C(O)CN1CC(=O)Oc2ccccc21
196 to 198 | N#Cc1ccc(Cc2cnc(N)s2)c(C(F)(F)F)c1
116 to 118 | O=c1[nH]nc(-c2cccs2)o1
230 to 232 | Nn1cnc2ccc(Br)cc2c1=O
126 to 128 | CC(C)c1cccc(N2CC(C(=O)O)CC2=O)c1 (stereo not given)
266 to 268 | Cc1cc(C(=O)O)cc(S(N)(=O)=O)c1C
317 to 319 | O=S(=O)(O)c1ccnc2ccccc12
126 to 128 | CNc1ccc(S(C)(=O)=O)cc1
61 to 63 | COC(=O)C(N)c1cccnc1 (stereo not given)
193 to 195 | O=C(O)c1nn(-c2cccc(Br)c2)c2c1CCCC2
200 to 202 | CC(C)(C)C(=O)Nc1cn[nH]c1
81 to 83 | O=[N+]([O-])c1ccc(CO)c(Br)c1
63 to 65 | O=C1C(Br)CCN1c1ccc(C(F)(F)F)cc1 (stereo not given)
125 to 127 | c1ccc(COc2cccc3[nH]ncc23)cc1
61 to 63 | CCN(CC)C(=O)COc1ccc(C(C)=O)cc1
250 to 255 | Cc1ccc(-c2nnc(O)c3ccccc23)cc1
61 to 63 | CC(C)CCc1cc(N)on1
179 to 181 | CC(C)(C)OC(=O)Nc1ccc(C(=O)O)cc1O
205 to 220 | COc1ccc(-c2cc(C(=O)NN)[nH]n2)cc1
203 to 205 | Cc1ccc2c(c1)c(=O)n(C)c1nnc(CCl)n21

Compound | melting point [°C]
Cc1cc(C(=O)O)c(C)n1CC1CC1 | 179 to 181
O=C(CCl)Nc1ccccc1Br | 78 to 80

Reference: a melting point compilation (Tetko et al.)
